Assay results as given in ChEMBL document CHEMBL5724914, “Linking interpersonal differences in gut microbiota composition and drug biotransformation activity” (2024).

Key:
[1] = (§1) The drug is tested on Z-028 corresponding to mouse gut metagenome with ENA study accession number: PRJEB37062 and ENA sample accession number: ERS12561827 for biotransformation under anaerobic condition. The drug concentrations were measured over 9 timepoints collected between 0 and 24 hours of incubation by liquid-chromatography-coupled mass spectrometry (LC–MS); settings: 2 µM
[2] = as §1, with “Z-025” for “Z-028”, “rabbit” for “mouse”, “ERS12561824” for “ERS12561827”; settings: 2 µM
[3] = as §1, with “Z-021” for “Z-028”, “to” for “to mouse gut”, “ERS12561820” for “ERS12561827”; settings: 2 µM
[4] = as §1, with “Z-020” for “Z-028”, “rabbit” for “mouse”, “ERS12561819” for “ERS12561827”; settings: 2 µM
[5] = as §1, with “Z-013” for “Z-028”, “rabbit” for “mouse”, “ERS12561813” for “ERS12561827”; settings: 2 µM
[6] = as §1, with “Z-006” for “Z-028”, “ERS12561806” for “ERS12561827”; settings: 2 µM
[7] = as §1, with “Z-003” for “Z-028”, “pig” for “mouse”, “ERS12561803” for “ERS12561827”; settings: 2 µM
[8] = as §1, with “WLS-098” for “Z-028”, “human” for “mouse”, “ERS12561754” for “ERS12561827”; settings: 2 µM
[9] = as §1, with “WLS-069” for “Z-028”, “human” for “mouse”, “ERS12561748” for “ERS12561827”; settings: 2 µM
[10] = as §1, with “WLS-010” for “Z-028”, “human” for “mouse”, “ERS12561743” for “ERS12561827”; settings: 2 µM
[11] = as §1, with “WLS-006” for “Z-028”, “human” for “mouse”, “ERS12561741” for “ERS12561827”; settings: 2 µM
[12] = human gut metagenome, 24 h, 2 µM
[13] = human gut metagenome, 24 h, 2 µM; remark: listed apart in the source
[14] = human gut metagenome, 24 h, 2 µM; remark: listed apart in the source
[15] = human gut metagenome, 24 h, 2 µM; remark: listed apart in the source
[16] = human gut metagenome, 24 h, 2 µM; remark: listed apart in the source
[17] = human gut metagenome, 24 h, 2 µM; remark: listed apart in the source
[18] = human gut metagenome, 24 h, 2 µM; remark: listed apart in the source
[19] = human gut metagenome, 24 h, 2 µM; remark: listed apart in the source
[20] = human gut metagenome, 24 h, 2 µM; remark: listed apart in the source
Further: call rule not given here.

Row | Bacterial Biotransformation [1] | Bacterial Biotransformation [2] | Bacterial Biotransformation [3] | Bacterial Biotransformation [4] | Bacterial Biotransformation [5] | Bacterial Biotransformation [6] | Bacterial Biotransformation [7] | Bacterial Biotransformation [8] | Bacterial Biotransformation [9] | Bacterial Biotransformation [10] | Bacterial Biotransformation [11] | Bacterial Biotransformation [12] | Bacterial Biotransformation [13] | Bacterial Biotransformation [14] | Bacterial Biotransformation [15] | Bacterial Biotransformation [16] | Bacterial Biotransformation [17] | Bacterial Biotransformation [18] | Bacterial Biotransformation [19] | Bacterial Biotransformation [20] | SMILES
1 | Compound metabolized | Compound metabolized | Compound metabolized | Compound metabolized | Compound metabolized | Compound metabolized | Compound metabolized | Compound metabolized | Compound metabolized | Compound metabolized | Compound metabolized | Compound metabolized | Compound metabolized | Compound metabolized | Compound metabolized | Compound metabolized | Compound metabolized | Compound metabolized | Compound metabolized | Compound metabolized | CCCc1nc2c(C)cc(-c3nc4ccccc4n3C)cc2n1Cc1ccc(-c2ccccc2C(=O)O)cc1
2 | Compound NOT metabolized | Compound NOT metabolized | Compound metabolized | Compound NOT metabolized | Compound NOT metabolized | Compound NOT metabolized | Compound NOT metabolized | Compound metabolized | Compound metabolized | Compound metabolized | Compound metabolized | Compound metabolized | Compound metabolized | Compound metabolized | Compound metabolized | Compound metabolized | Compound metabolized | Compound metabolized | Compound NOT metabolized | Compound metabolized | CCCCC(=O)N(Cc1ccc(-c2ccccc2-c2nnn[nH]2)cc1)[C@H](C(=O)O)C(C)C
3 | Compound metabolized | Compound NOT metabolized | Compound NOT metabolized | Compound metabolized | Compound NOT metabolized | Compound NOT metabolized | Compound metabolized | Compound metabolized | Compound metabolized | Compound metabolized | Compound NOT metabolized | Compound metabolized | Compound metabolized | Compound metabolized | Compound metabolized | Compound metabolized | Compound NOT metabolized | Compound metabolized | Compound metabolized | Compound metabolized | COc1ccc(CCN(C)CCCC(C#N)(c2ccc(OC)c(OC)c2)C(C)C)cc1OC (stereo unspecified)
4 | Compound NOT metabolized | Compound NOT metabolized | Compound metabolized | Compound metabolized | Compound NOT metabolized | Compound NOT metabolized | Compound metabolized | Compound NOT metabolized | Compound NOT metabolized | Compound metabolized |  | Compound NOT metabolized | Compound NOT metabolized | Compound NOT metabolized | Compound NOT metabolized | Compound NOT metabolized | Compound NOT metabolized | Compound NOT metabolized | Compound NOT metabolized | Compound NOT metabolized | C[C@@H]1C[C@H]2[C@@H]3CCC4=CC(=O)C=C[C@]4(C)[C@@]3(F)[C@@H](O)C[C@]2(C)[C@@]1(O)C(=O)CO [DEXAMETHASONE]
5 | Compound NOT metabolized | Compound NOT metabolized | Compound NOT metabolized | Compound NOT metabolized | Compound NOT metabolized | Compound NOT metabolized | Compound NOT metabolized | Compound metabolized |  | Compound metabolized | Compound NOT metabolized | Compound NOT metabolized | Compound NOT metabolized | Compound NOT metabolized | Compound NOT metabolized | Compound NOT metabolized | Compound metabolized | Compound NOT metabolized | Compound NOT metabolized | Compound metabolized | COc1cc2nc(N3CCN(C(=O)c4ccco4)CC3)nc(N)c2cc1OC [PRAZOSIN]
6 | Compound NOT metabolized | Compound NOT metabolized | Compound metabolized | Compound NOT metabolized | Compound NOT metabolized | Compound NOT metabolized | Compound NOT metabolized | Compound metabolized | Compound metabolized | Compound metabolized | Compound metabolized | Compound NOT metabolized | Compound NOT metabolized | Compound metabolized | Compound NOT metabolized | Compound metabolized | Compound NOT metabolized | Compound metabolized |  | Compound metabolized | COC(=O)[C@H]1[C@H]2C[C@@H]3c4[nH]c5cc(OC)ccc5c4CCN3C[C@H]2C[C@@H](OC(=O)c2cc(OC)c(OC)c(OC)c2)[C@@H]1OC [RESERPINE]

Row | SMILES | Bacterial Biotransformation [1] | Bacterial Biotransformation [2] | Bacterial Biotransformation [3] | Bacterial Biotransformation [4] | Bacterial Biotransformation [5] | Bacterial Biotransformation [6] | Bacterial Biotransformation [7] | Bacterial Biotransformation [8] | Bacterial Biotransformation [9] | Bacterial Biotransformation [10] | Bacterial Biotransformation [11] | Bacterial Biotransformation [12] | Bacterial Biotransformation [13] | Bacterial Biotransformation [14] | Bacterial Biotransformation [15] | Bacterial Biotransformation [16] | Bacterial Biotransformation [17] | Bacterial Biotransformation [18] | Bacterial Biotransformation [19] | Bacterial Biotransformation [20]
7 | CCC(COC(=O)c1cc(OC)c(OC)c(OC)c1)(c1ccccc1)N(C)C.O=C(O)/C=C\C(=O)O (stereo unspecified) | Compound metabolized | Compound NOT metabolized | Compound metabolized | Compound metabolized | Compound NOT metabolized | Compound NOT metabolized | Compound NOT metabolized | Compound NOT metabolized | Compound metabolized | Compound NOT metabolized | Compound NOT metabolized | Compound metabolized | Compound NOT metabolized | Compound NOT metabolized | Compound NOT metabolized | Compound metabolized | Compound NOT metabolized | Compound NOT metabolized | Compound metabolized | Compound metabolized
8 | OCCN1CCN(CCCN2c3ccccc3Sc3ccc(C(F)(F)F)cc32)CC1 [FLUPHENAZINE] | Compound metabolized | Compound metabolized | Compound metabolized | Compound NOT metabolized | Compound NOT metabolized | Compound metabolized | Compound metabolized | Compound NOT metabolized | Compound metabolized | Compound metabolized | Compound NOT metabolized | Compound metabolized | Compound metabolized | Compound metabolized | Compound metabolized | Compound metabolized | Compound NOT metabolized | Compound metabolized | Compound metabolized | 
